Measured values from patent US6821746B2, “Methods of screening for FabK antagonists and agonists” (priority 2000, dated 2004).

Biological target: T1, S.pneumoniae FabK, enoyl-ACP reductase (Streptococcus pneumoniae, UniProt Q9FBC5, T318A)
T1 construct: […]; made in house; host or cells: E. coli BL21 (DE3) harboring tRNA vector pRR692; plasmid pET24bSpfabK
Assay: FabK enzyme activity assay (NADH oxidation at 340 nm, crotonoyl-ACP reduction)
Format: biochemical
Details: NH4+ at 100 mM; greatest activation among monovalent cations
Procedure: FabK catalyses the reduction of enoyl-ACPs with the concommitant oxidation of NADH. Crotonoyl-ACP can be prepared as described below. The reduction of crotonoyl-ACP to butyryl-ACP can be monitored by following the change in absorbance at 340 nm as NADH is oxidised.
Assays were carried out in Costar 3696 half-area plates in a final assay volume of 150 ul on a Spectramax platereader. Substrates, NADH and crotonoyl ACP, were incubated with FabK enzyme in 100 mM N-[2-acetamido]-2 iminodiacetic acid (ADA), pH 6.5, 100 mM NH4Cl, 4% glycerol at 30° C. and the reaction monitored at 340 nm. This assaying can also be performed using crotonyl CoA, NADPH or an NADH analogue as a substrate.

T1 sequence (Q9FBC5 whole entry T318A): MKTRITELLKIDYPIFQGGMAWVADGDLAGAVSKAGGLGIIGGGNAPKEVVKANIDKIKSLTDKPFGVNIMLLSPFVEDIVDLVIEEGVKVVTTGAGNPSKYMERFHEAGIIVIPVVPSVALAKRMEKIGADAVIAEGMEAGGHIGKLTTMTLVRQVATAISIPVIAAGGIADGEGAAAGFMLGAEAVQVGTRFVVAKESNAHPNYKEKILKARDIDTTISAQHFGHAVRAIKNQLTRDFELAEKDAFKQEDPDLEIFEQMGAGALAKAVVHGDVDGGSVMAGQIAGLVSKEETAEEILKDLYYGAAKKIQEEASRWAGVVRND

Compound: Cl.N [NH4+, NH4^+]
- activation of the FabK reaction over the reaction with no monovalent cations: about 300 fold
